Experimental findings from patent US9770421B2, “Uses for idebenone and related benzoquinones in metabolic disorders and other PPAR α/γ related diseases and conditions” (INDANIO BIOSCIENCE INC., priority 2013, dated 2017) are described below.

pEC50: −log10 of the molar value. Entries after “also recorded” stand apart in the source; their conditions may differ.

The target in one assay is T1, hPPARδ/β (Homo sapiens, UniProt Q03181).
T1 sequence (Q03181 143-441): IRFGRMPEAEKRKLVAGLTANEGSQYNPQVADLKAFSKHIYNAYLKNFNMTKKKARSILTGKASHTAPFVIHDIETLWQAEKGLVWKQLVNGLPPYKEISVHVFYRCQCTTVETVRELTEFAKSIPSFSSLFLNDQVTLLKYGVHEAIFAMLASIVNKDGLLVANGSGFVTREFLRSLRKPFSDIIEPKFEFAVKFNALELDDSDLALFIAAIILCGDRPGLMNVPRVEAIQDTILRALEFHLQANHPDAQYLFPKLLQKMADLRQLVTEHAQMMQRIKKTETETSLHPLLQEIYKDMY
Nature of the assay: HEK293 cell culture luciferase reporter assay, hPPARδ/β. To be noted: read-out: EC50 hPPARδ/β; HEK293, GAL4-hPPARδ/β LBD, luciferase. (In general: Reporter assays use an easily measured gene product as a stand-in for the process of interest.)

The next assay concerns the target T2, hPPARγ (Homo sapiens, UniProt P37231).
T2 sequence (P37231 188-477 isoform P37231-2): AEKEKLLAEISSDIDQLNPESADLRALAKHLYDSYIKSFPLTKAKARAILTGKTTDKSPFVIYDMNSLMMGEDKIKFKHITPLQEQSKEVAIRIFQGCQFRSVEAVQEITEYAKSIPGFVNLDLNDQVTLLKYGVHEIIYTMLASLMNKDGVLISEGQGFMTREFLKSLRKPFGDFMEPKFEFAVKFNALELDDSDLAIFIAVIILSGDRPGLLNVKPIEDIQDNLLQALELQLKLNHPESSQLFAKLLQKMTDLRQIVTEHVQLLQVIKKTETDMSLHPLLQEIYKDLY
As to the kind of experiment: PPARγ ligand trap (LT) zebrafish GFP reporter screen/assay. The following applies: transgenic embryos, 48 hpf images. The format is in vivo. The arrangement: pLT PPARα (aa 178-468) and pLT PPAR γ (aa 188-477) lines; expressed in transfected cells; host or cells: transgenic zebrafish embryos (heat-induced ligand-trap line). The protocol: Digested DNA was adjusted with 0.1% phenol red. 4.6 nl of DNA solution was injected into the blastomeres of early one-cell stage embryos.
(§1) F0 fish were crossed with WT fish to identify germ-line transformed animals, as determined by agonist treatments and GFP expression. F1 progeny showing strong and consistent GFP responses were selected for F2 homozygote production. To avoid reporter GFP silencing of stable transgenic LT lines, homozygous fish showing strong and consistent GFP responses were selected for continued propagation of next generations.
PPARγ ligand trap zebrafish screens were performed under optimized conditions in 96-well format using the ImageXpress Velos Laser Scanning Cytometer. 1 or 2 dpf embryos were heat induced (28→37° C.) for 30 minutes, de-chorionated and then arrayed in 96-well plates (5 per well). Embryo water (0.075 g/L NaHCO3, 0.018 g/L Sea salt, 0.0084 g/L CaSO42H2O) was removed and 200 μl of fresh embryo water/well including dissolved small molecules or solvent was added.
Also included was the CoQ10 analog idebenone.

The test system of another assay is C57Bl/6 db/db mice. As to the kind of experiment: db/db mouse study (NAFLD features). It counts as in vivo. The following applies: 10 mpk in food, 3 weeks, versus vehicle. On the procedure:
Db/db study: Forty male C57Bl/6 db/db mice (called B6.BKS(D)-Lepr db/J) were ordered from Jackson Laboratories (#000697) at 7 weeks of age. Mice were housed individually with free access to food (2016 Teklad Global 16% Protein Rodent Diet) and water on a 14 hour light/dark cycle (6 a.m. to 8 p.m. light). […] Food was exchanged on a daily bases. Harlan corn cob bedding was provided and was changed every week or as needed. Following a 1 week acclimation, 32 mice were chosen based on desired body weight range. Remaining mice were euthanized. Mice were randomized by body weight into four treatment groups (n=8) by body weight. Dosing occurred for 21 days. Mice were euthanized by CO2 euthanasia and livers were fixed in neutral buffered formalin (NBF) for 24 h, followed by a one day fixation in 30% Sucrose and 10% Sucrose. Oil O Red staining was performed through the Pathology Research Program at the University Health Network in Toronto [46]. [table] 100 mg of db/db livers were homogenized in RIPA buffer and protein concentration was quantified using a BCA protein assay kit (Cell signalling #7780) followed by measurement of ‘Thiobarbituric Acid Reactive Substances’ (TBARS) using a TBARS assay kit (Cayman Chemicals #10009055). Total RNA was extracted from 100 mg of db/db livers using RNA STAT-60 (Tel-Test, Inc.), treated with DNase I (RNase-free, Roche), and reverse transcribed into cDNA with random hexamers using the High Capacity Reverse transcription system (Applied Biosystems, ABI). Primers used are shown below and were validated as previously described. Real-time QPCR reactions were performed on an ABI 7900 in 384-well plates containing 12.5 ng cDNA, 150 nM of each primer, and 5 μl 2×SYBR Green PCR Master Mix (ABI) in a 10 μl total volume. Relative mRNA levels were calculated using the comparative Ct method normalized to cyclophilin mRNA.

The target of another assay is T3, PPARα (Homo sapiens, UniProt Q07869).
T3 sequence (Q07869 178-468): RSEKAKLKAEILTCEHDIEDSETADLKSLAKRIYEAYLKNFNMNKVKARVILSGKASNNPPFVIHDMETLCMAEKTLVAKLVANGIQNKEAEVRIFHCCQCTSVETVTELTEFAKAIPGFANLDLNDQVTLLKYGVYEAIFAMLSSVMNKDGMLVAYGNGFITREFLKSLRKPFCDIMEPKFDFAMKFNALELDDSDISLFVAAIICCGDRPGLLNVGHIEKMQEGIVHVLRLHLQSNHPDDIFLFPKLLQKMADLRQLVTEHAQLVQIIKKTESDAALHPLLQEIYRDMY
As to the kind of experiment: PPARα ligand trap zebrafish GFP reporter assay. To be noted: transgenic embryos, 48 hpf. Also noted: pLT PPARα (aa 178-468) and pLT PPAR γ (aa 188-477) lines; expressed in transfected cells; host or cells: transgenic zebrafish embryos (ligand-trap line). The format is in vivo. On the procedure:
Zebrafish were maintained at 28.5° C. on a 14/10 hour light/dark cycle and staged according to hours (h) or days (d) postfertilization. To generate pLT PPARα (aa 178-468) and pLT PPAR γ (aa 188-477) lines, plasmids were pre-digested with I-SceI (0.8 μg DNA, 1 μl I-SceI (New England Biolabs) 2 μl 10×I-SceI buffer, 1 μl BSA) for 20 min at 37° C. Digested DNA was adjusted with 0.1% phenol red. 4.6 nl of DNA solution was injected into the blastomeres of early one-cell stage embryos.
as §1
PPARγ ligand trap zebrafish screens were performed under optimized conditions in 96-well format using the ImageXpress Velos Laser Scanning Cytometer. 1 or 2 dpf embryos were heat induced (28→37° C.) for 30 minutes, de-chorionated and then arrayed in 96-well plates (5 per well). […] Embryos were incubated at 28° C. for 14 h, anesthetized with Tricaine (Sigma, Cat. # A-5040) and then analyzed for GFP fluorescence using the ImageXpress Velos Laser Scanning Cytometer.

A further assay concerns the target T4, PPARδ/β (Homo sapiens, UniProt Q03181).
T4 construct: expressed in transfected cells; host or cells: transgenic zebrafish embryos (ligand-trap line)
T4 sequence (Q03181 211-439 limits assumed): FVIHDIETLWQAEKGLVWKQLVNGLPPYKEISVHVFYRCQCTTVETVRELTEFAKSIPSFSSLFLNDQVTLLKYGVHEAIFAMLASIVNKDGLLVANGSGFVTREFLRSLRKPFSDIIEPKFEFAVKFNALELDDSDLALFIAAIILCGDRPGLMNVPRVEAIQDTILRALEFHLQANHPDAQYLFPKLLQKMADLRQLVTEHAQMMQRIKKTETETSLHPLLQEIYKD
Nature of the assay: PPARδ/β ligand trap transgenic zebrafish line. The following applies: in vivo. On the procedure: To test for specificity, idebenone and CoQ10 were also tested on PPARα, and PPARδ/β receptors in vivo and in vitro. […] The same relative responses were obtained with HEK 293 cells grown in culture and transfected with PPAR expression vectors and luciferase reporters (FIG. 5).

Assay [1] addresses T5, human PPARγ LBD (residues 206-477) (Homo sapiens, UniProt P37231).
T5 construct: human PPARγ LBD (residues 206-477), expressed in pRSET; His tag (implied by Ni-NTA purification and the pRSET vector); made in house; host or cells: E. coli BL21 codon plus (pRSET)
T5 sequence (P37231 206-477 isoform P37231-2): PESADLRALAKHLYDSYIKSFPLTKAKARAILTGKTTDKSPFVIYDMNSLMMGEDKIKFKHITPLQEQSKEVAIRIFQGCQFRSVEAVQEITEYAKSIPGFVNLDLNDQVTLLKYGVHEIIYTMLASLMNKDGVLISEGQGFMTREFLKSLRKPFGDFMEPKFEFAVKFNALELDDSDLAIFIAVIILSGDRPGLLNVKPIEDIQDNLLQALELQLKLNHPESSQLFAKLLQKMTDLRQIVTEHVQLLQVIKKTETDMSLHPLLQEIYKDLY
Nature of the assay: Stargazer thermostabilization assay. The format is binding. To be noted: 0.2 mg/ml PPARγ LBD, heated to 80° C.

Assay [2] relates to GFP-expressing leukocytes recruited in response to CuSO4. As to the kind of experiment: Zebrafish inflammation assay (CuSO4). The format is in vivo. To be noted: 10 μM CuSO4, 55 hpf embryos. On the procedure: Assay was performed as described in [47]. Fifteen dechorionated 55 hpf (hours post fertilization) embryos were transferred in each well of 6-well plates in 6 ml of embryo water. Idebenone was added at increasing concentrations (0.25, 0.75, 1.5, 3 and 5 μM). Embryos were incubated in the dark for 1 hr at 28 C, followed by a second 40 min incubation with copper sulfate (CuSO4) at a final concentration of 10 μM at 28 C in the dark. Embryos were then transferred to Eppendorf tubes and fixed in 4% paraformaldehyde in 1×PBS overnight at 4 C in the dark. Numbers of GFP+ cells were counted along the lateral line/neuromast clusters.
Previous studies have shown that PPAR agonists have anti-inflammatory properties, and can be used to treat a variety of inflammatory responses. To test if this is also true for idebenone, we used a zebrafish model of inflammation. Exposure of fish larvae to copper sulfate causes non-invasive damage to neuromast cells, which form external clusters along the lateral midline. This inflammation can be visualized via the recruitment of GFP-expressing leukocytes. As expected, this recruitment of GFP positive cells could be alleviated by addition of the known anti-inflammatory agent ibuprofen (FIG. 11).

On to `O=C(O)COc1ccc(SCC=C(c2ccc(Br)cc2)c2ccc(Br)cc2)cc1Cl` [CAY10592], for which, on hPPARδ/β, the pEC50 was 7.89.
Consider `COC1=C(OC)C(=O)C(C/C=C(\C)CCC=C(C)C)=C(C)C1=O` [CoQ2, coenzyme Q2], for which the “GFP reporter activation in LT-PPARγ embryos” value (shortened to “GFP reporter activation”) at hPPARγ was “activity similar to idebenone and CoQ10”.
As for `CN(CCOc1ccc(CC2SC(=O)NC2=O)cc1)c1ccccn1` (stereo not shown) [rosiglitazone], the “Gain in liver weight” value in the assay on C57Bl/6 db/db mice amounted to 8.6%.
As for `COC1=C(OC)C(=O)C(C/C=C(\C)CC/C=C(\C)CC/C=C(\C)CC/C=C(\C)CC/C=C(\C)CC/C=C(\C)CC/C=C(\C)CC/C=C(\C)CC/C=C(\C)CCC=C(C)C)=C(C)C1=O` [CoQ10, coenzyme Q10], the “GFP reporter activation” value at hPPARγ was “dual agonists for PPARα and PPARγ”. On PPARα, the “GFP response of PPARα LT line” value is “robust response; also recorded: dual agonists for PPARα and PPARγ”. Also, at PPARδ/β, the “Response of PPARδ/β transgenic line” value was “no response”.
`COC1=C(OC)C(=O)C(C)=CC1=O` [CoQ0, Coenzyme Q0]: the “GFP reporter activation” value on hPPARγ was “relatively weak activity; also recorded: weak PPARγ activation”. Moreover, in assay [1], the “Shift of thermal denaturation transition temperature” value stood at 8.5 °C.
`COC1=C(OC)C(=O)C(CC=C(C)C)=C(C)C1=O` [CoQ1, coenzyme Q1]: the “GFP reporter activation” value on hPPARγ is on record as “relatively weak activity; also recorded: weak PPARγ activation”.
Turning to `O=C1C=CC(=O)C=C1` [1,4-benzoquinone], the “GFP reporter activation” value at hPPARγ is listed as “did not induce a detectable response”; on hPPARγ (listed as benzoquinone), “no reporter activation”.
For the molecule `CC(C)Cc1ccc(C(C)C(=O)O)cc1` (stereo not shown) [Ibuprofen], the “Recruitment of GFP positive leukocytes (anti-inflammatory activity)” value in assay [2] is “alleviated”.
With `COC1=C(OC)C(=O)C(CCCCCCCCCC[P+](c2ccccc2)(c2ccccc2)c2ccccc2)=C(C)C1=O` [MitoQ, 10-[4,5-dimethoxy-2-methyl-3,6-dioxo-1,4-cycloheexadienl-yl]decyl triphenylphosphonium methanesulfonate], the “GFP reporter activation” value on hPPARγ is “failed to activate; also recorded: no activation”.
